In patent publication US20250051283A1, “THERAPEUTIC COMPOUNDS AND METHODS” (priority 2023, published 2025):
Read-outs that look alike come from different tables or passages of the source.

Tested on: EV-D68 US/MO/14-18947
Assay: CPE assay (neutral red) with EV-D68 US/MO/14-18947 in R.D. cells
Format: cell-based, Enterovirus D68
Conditions: CPE assay, EV-D68 US/MO/14-18947 in R.D. cells, read-out: Antiviral EC50
Protocol: Cell lines and viruses. Human rhabdomyosarcoma (R.D., ATCC, CCL-136) cells were maintained at 37° C. in a 5% CO2 atmosphere and cultured in Dulbecco's modified Eagle's medium (DMEM) supplemented with 10% fetal bovine serum (FBS) and 1% penicillin-streptomycin antibiotics. The following reagents were obtained through BEI Resources, NIAID, NIH: Human Enterovirus D68, US/MO/14-18949, NR-49130; Enterovirus D68, US/MO/14-18947, NR-49129; Enterovirus D68, US/IL/14-18952, NR-49131; Enterovirus D68, US/KY/14-18953, NR-49132; Enterovirus D68, US/IL/14-18956, NR-49133.
Antiviral assays. Cells for antiviral assays were seeded and grown overnight at 37° C. in a 5% CO2 atmosphere for ˜90% confluency the next day. For all infections, cells were washed with PBS containing magnesium and calcium and infected with virus diluted in DMEM with 2% FBS and 30 mM MgCl2. Viruses were incubated for at least 1 h at 33° C. in a 5% CO2 atmosphere, followed by the addition of compound as well as 1% penicillin-streptomycin. For CC50 measurements, the experiment was performed similarly but excluded viral infection. For cytopathic effect (CPE) assays, cells were stained with 66 µg/mL neutral red for 2 h and neutral red uptake was measured at absorbance 540 nm using a Multiskan FC Microplate Photometer (ThermoFisher Scientific). The EC50 and CC50 values were calculated from best-fit dose response curves using GraphPad Prism. For plaque reduction assays, an 1.2% avicel microcrystalline cellulose (FMC BioPolymer, Philadelphia, PA) overlay was used and cells were stained after 3 days as previously described^26.

| SMILES | EC50 [nM] | EC50 (Enterovirus D, EVD68, RD) [nM] |
| --- | --- | --- |
| CCC[C@H](NC(=O)[C@@H]1[C@H]2CCC[C@H]2CN1C(=O)[C@@H](NC(=O)C[C@@]12C[C@@H]3C[C@@H](C[C@@](O)(C3)C1)C2)C(C)(C)C)C(=O)C(=O)NC1CC1 [Jun922, (1S,3aR,6aS)—N—((S)-1-(cyclopropylamino)-1,2-dioxohexan-3-yl)-2-((S)-2-(2-((1r,3R,5R,7S)-3-hydroxyadamantan-1-yl)acetamido)-3,3-dimethylbutanoyl)octa-hydrocyclopenta[c]pyrrole-1-carboxamide] | 1850 |  |
| CCC[C@H](NC(=O)[C@@H]1[C@H]2CCC[C@H]2CN1C(=O)[C@@H](NC(=O)CC1C2CC3CC(C2)CC1C3)C(C)(C)C)C(=O)C(=O)NC1CC1 (stereo partly drawn) [Jun1024, (1S)-2-((S)-2-(2-((1S,3S,5S,7S)-adamantan-2-yl)acetamido)-3,3-dimethylbutanoyl)-N—((S)-1-(cyclopropylamino)-1,2-dioxohexan-3-yl)octahydrocyclopenta[c]pyrrole-1-carboxamide] | 180 |  |
| CCC[C@@H](C#N)NC(=O)[C@@H]1[C@H]2CCC[C@H]2CN1C(=O)C(NC(=O)CC12CC3CC(CC(C3)C1)C2)C(C)(C)C (stereo partly drawn) [Jun11191, (1S,3aR,6aS)-2-((S)-2-(2-((3S,5S,7S)-adamantan-1-yl)acetamido)-3,3-dimethylbutanoyl)-N—((S)-1-cyanobutyl) octahydro-cyclopenta[c]pyrrole-1-carboxamide] |  | 3920 |
